{
  "source": "ChEMBL document CHEMBL3045479",
  "about": "“Synthesis and anti-cancer activity of some novel C-17 analogs of ursolic and oleanolic acids” (2013)",
  "assay_type_in_all_cases": "functional",
  "key": {"[1]": {"system": "THP-1", "experiment": "Growth inhibition of Homo sapiens (human) THP1 cells at 10 uM after 48 hr by SRB assay", "conditions": "THP-1, 48 h, read-out: GI"}, "[2]": {"system": "PC-3", "experiment": "Growth inhibition of Homo sapiens (human) PC3 cells at 10 uM after 48 hr by SRB assay", "conditions": "PC-3, 48 h, read-out: GI"}, "[3]": {"system": "IMR-32", "experiment": "Growth inhibition of Homo sapiens (human) IMR32 cells at 10 uM after 48 hr by SRB assay", "conditions": "IMR-32, 48 h, read-out: GI"}, "[4]": {"system": "A549", "experiment": "Growth inhibition of Homo sapiens (human) A549 cells at 10 uM after 48 hr by SRB assay", "conditions": "A549, 48 h, read-out: GI"}, "[5]": {"system": "SiHa", "experiment": "Growth inhibition of Homo sapiens (human) SiHa cells at 10 uM after 48 hr by SRB assay", "conditions": "read-out: GI"}, "[6]": {"system": "HeLa", "experiment": "Growth inhibition of Homo sapiens (human) HeLa cells at 10 uM after 48 hr by SRB assay", "conditions": "read-out: GI"}, "[7]": {"system": "SW-620", "experiment": "Growth inhibition of Homo sapiens (human) SW620 cells at 10 uM after 48 hr by SRB assay", "conditions": "SW-620, 48 h, read-out: GI"}, "[8]": {"system": "COLO 205", "experiment": "Growth inhibition of Homo sapiens (human) COLO205 cells at 10 uM after 48 hr by SRB assay", "conditions": "COLO 205, 48 h, read-out: GI"}},
  "data": [
    {"smiles": "C[C@H]1[C@H](C)CC[C@]2(C(=O)O)CC[C@]3(C)C(=CC[C@@H]4[C@@]5(C)CC[C@H](O)C(C)(C)[C@@H]5CC[C@]43C)[C@H]12", "note": "[URSOLIC ACID]", "values": [
      {"measurement": "inhibition of growth at 10 µM", "setting": "[1]", "value": 52, "unit": "%"},
      {"measurement": "inhibition of growth at 10 µM", "setting": "[2]", "value": 60, "unit": "%"},
      {"measurement": "inhibition of growth at 10 µM", "setting": "[3]", "value": 13, "unit": "%"},
      {"measurement": "inhibition of growth at 10 µM", "setting": "[4]", "value": 8, "unit": "%"},
      {"measurement": "inhibition of growth at 10 µM", "setting": "[5]", "value": 67, "unit": "%"},
      {"measurement": "inhibition of growth at 10 µM", "setting": "[6]", "value": 65, "unit": "%"},
      {"measurement": "inhibition of growth at 10 µM", "setting": "[7]", "value": 71, "unit": "%"},
      {"measurement": "inhibition of growth at 10 µM", "setting": "[8]", "value": 7, "unit": "%"}
    ]}
  ]
}
